Assay results taken from patent US11000033B2, “Ketone or oxime compound, and herbicide” (NISSAN CHEMICAL CORPORATION, priority 2014, dated 2021).

How the values were obtained:
Type in all cases: in vivo
[1] = tested on: Echinochloa crus-galli var. crus-galli; experiment: Test Example 5: herbicidal effect by foliage application, plastic box (symbol H); details: 3 weeks after application
Procedure, shortened: (§1)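 Seeds were sown in sterilized diluvial soil, covered with about 1.5 cm of soil and grown 14 days in a greenhouse at 25° C. to 30° C. An emulsifiable formulation diluted in water to a set rate was sprayed over foliage, and injury was scored 3 weeks later.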

[2] = tested on: Monochoria vaginalis; experiment: Test Example 2: herbicidal activity, application during weed generation in submerged conditions (symbol C); details: Table 23, grade 0-5 by criteria of Test Example 1
Procedure, shortened: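 Scoring of herbicidal effect took place 3 weeks after treatment, using the criteria of the earlier test. Treatment was water-surface application of diluted emulsifiable compound at a set dose. Plants were at one- to two-leaf stage in submerged alluvial soil (4 cm depth), greenhouse 25-30° C.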

[3] = tested on: Echinochloa crus-galli var. crus-galli; experiment: Test Example 4: herbicidal effect by soil treatment (symbol H)
Procedure, shortened: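 Seeds were sown in sterilized diluvial soil, covered with about 1.5 cm of soil, and the soil surface was sprayed with a water-diluted emulsion of the compound at a predetermined rate. Plants grew in a greenhouse at 25° C. to 30° C.; effects were scored visually 3 weeks after application.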

[4] = tested on: Abutilon theophrasti; experiment: Test Example 5: herbicidal effect by foliage application, plastic box (symbol M); details: 3 weeks after application
Procedure, shortened: as §1

[5] = tested on: Stellaria media; experiment: Test Example 5: herbicidal effect by foliage application, plastic box (symbol P); details: 3 weeks after application
Procedure, shortened: as §1

[6] = application herbicide amount 320 g/ha

| Structure (SMILES) | H: Echinochloa crus-galli var. crus-galli, herbicidal effect grade ([1]; 320 g/ha) | Herbicidal effect grade, C: Monochoria vaginalis [2, 6] | M: Abutilon theophrasti, herbicidal effect grade ([4]; 320 g/ha) | P: Stellaria media, herbicidal effect grade ([5]; 320 g/ha) | H: Echinochloa crus-galli var. crus-galli, herbicidal effect (criteria 0-5) ([1]; 320 g/ha) | H: Echinochloa crus-galli var. crus-galli, herbicidal effect grade ([3]; 320 g/ha) | M: Abutilon theophrasti, herbicidal effect (criteria 0-5) ([4]; 320 g/ha) | P: Stellaria media, herbicidal effect (criteria 0-5) ([5]; 320 g/ha) | also measured |
| --- | --- | --- | --- | --- | --- | --- | --- | --- | --- |
| CC#Cc1cc(C)c(C2=C(OC(=O)COc3ccccc3)CC(CC(C)=NOCC(F)(F)F)C2=O)c(C)c1 (stereo not shown) [9-013] | 5 (Herbicidal ratio of 90% or more (almost completely withered)) | 3 (Herbicidal ratio of 40% or higher and lower than 70%) | 4 (Herbicidal ratio of 70% or higher and lower than 90%) | 2 (Herbicidal ratio of 20% or higher and lower than 40%) | – | – | – | – | Herbicidal effect grade, H: Echinochloa crus-galli var. crus-galli [3, 6]: 5 (Herbicidal ratio of 90% or more (almost completely withered)) |
| CON=C(C)CC1CC(OC(=O)C2CCCO2)=C(c2c(C)cc(C)cc2C)C1=O (stereo not shown) [1-076] | – | – | – | – | – | – | – | – | H: Echinochloa crus-galli var. crus-galli, herbicidal effect (criteria 0-5) ([1]; 192 g/ha): 5 (Herbicidal ratio of 90% or more (almost completely withered)); Herbicidal effect grade, C: Monochoria vaginalis ([2]; application herbicide amount 192 g/ha): 0 (Herbicidal ratio of 5% or lower (almost no effect)); H: Echinochloa crus-galli var. crus-galli, herbicidal effect grade ([3]; 192 g/ha): 5 (Herbicidal ratio of 90% or more (almost completely withered)); M: Abutilon theophrasti, herbicidal effect (criteria 0-5) ([4]; 192 g/ha): 4 (Herbicidal ratio of 70% or higher and lower than 90%); P: Stellaria media, herbicidal effect (criteria 0-5) ([5]; 192 g/ha): 3 (Herbicidal ratio of 40% or higher and lower than 70%) |
| CON=C(C)CC1CC(OS(=O)(=O)N(C)C)=C(c2c(C)cc(C)cc2C)C1=O (stereo not shown) [1-122] | – | 0 (Herbicidal ratio of 5% or lower (almost no effect)) | – | – | 5 (Herbicidal ratio of 90% or more (almost completely withered)) | 4 (Herbicidal ratio of 70% or higher and lower than 90%) | 4 (Herbicidal ratio of 70% or higher and lower than 90%) | 1 (Herbicidal ratio of 5% or higher and lower than 20%) | – |
| CC(CC1CC(O)=C(c2c(C)cc(C)cc2C)C1=O)=NOCC(C)Br (stereo not shown) [1-135] | – | 0 (Herbicidal ratio of 5% or lower (almost no effect)) | – | – | 5 (Herbicidal ratio of 90% or more (almost completely withered)) | 5 (Herbicidal ratio of 90% or more (almost completely withered)) | 3 (Herbicidal ratio of 40% or higher and lower than 70%) | 1 (Herbicidal ratio of 5% or higher and lower than 20%) | – |
| CON=C(CC1CC(OC(=O)C(C)(C)C)=C(c2c(C)cc(C)cc2OC)C1=O)C1CC1 (mixture of isomers) [13-006] | 5 (Herbicidal ratio of 90% or more (almost completely withered)) | 4 (Herbicidal ratio of 70% or higher and lower than 90%) | 4 (Herbicidal ratio of 70% or higher and lower than 90%) | 3 (Herbicidal ratio of 40% or higher and lower than 70%) | – | – | – | – | H: Echinochloa crus-galli var. crus-galli, herbicidal effect grade [3, 6]: 5 (Herbicidal ratio of 90% or more (almost completely withered)) |
| CC(CC1CC(O)=C(c2c(C)cc(C)cc2C)C1=O)=NOC1CCCC1 (stereo not shown) [1-106] | – | 0 (Herbicidal ratio of 5% or lower (almost no effect)) | – | – | 5 (Herbicidal ratio of 90% or more (almost completely withered)) | 5 (Herbicidal ratio of 90% or more (almost completely withered)) | 1 (Herbicidal ratio of 5% or higher and lower than 20%) | 2 (Herbicidal ratio of 20% or higher and lower than 40%) | – |
| CC(CC1CC(O)=C(c2c(C)cc(C)cc2C)C1=O)=NOCc1ccc(F)cc1 (stereo not shown) [1-136] | – | 5 (Herbicidal ratio of 90% or more (almost completely withered)) | – | – | 5 (Herbicidal ratio of 90% or more (almost completely withered)) | 5 (Herbicidal ratio of 90% or more (almost completely withered)) | 3 (Herbicidal ratio of 40% or higher and lower than 70%) | 1 (Herbicidal ratio of 5% or higher and lower than 20%) | – |
| CC(CC1CC(O)=C(c2c(C)cc(-n3cc(Cl)cn3)cc2C)C1=O)=NOCC(F)(F)F (stereo not shown) [9-010] | 5 (Herbicidal ratio of 90% or more (almost completely withered)) | 1 (Herbicidal ratio of 5% or higher and lower than 20%) | 0 (Herbicidal ratio of 5% or lower (almost no effect)) | 3 (Herbicidal ratio of 40% or higher and lower than 70%) | – | – | – | – | Herbicidal effect grade, H: Echinochloa crus-galli var. crus-galli [3, 6]: 5 (Herbicidal ratio of 90% or more (almost completely withered)) |
| CC(CC1CC(O)=C(c2c(C)cc(C)cc2C)C1=O)=NOCc1cccc(C(F)(F)F)c1 (stereo not shown) [1-117] | – | 3 (Herbicidal ratio of 40% or higher and lower than 70%) | – | – | 5 (Herbicidal ratio of 90% or more (almost completely withered)) | 5 (Herbicidal ratio of 90% or more (almost completely withered)) | 1 (Herbicidal ratio of 5% or higher and lower than 20%) | 3 (Herbicidal ratio of 40% or higher and lower than 70%) | – |
| Cc1cc(Br)cc(C)c1C1=C(O)CC(CC(=NOCC(F)(F)F)C2CC2)C1=O (stereo not shown) [9-009] | 5 (Herbicidal ratio of 90% or more (almost completely withered)) | 0 (Herbicidal ratio of 5% or lower (almost no effect)) | 0 (Herbicidal ratio of 5% or lower (almost no effect)) | 0 (Herbicidal ratio of 5% or lower (almost no effect)) | – | – | – | – | Herbicidal effect grade, H: Echinochloa crus-galli var. crus-galli [3, 6]: 0 (Herbicidal ratio of 5% or lower (almost no effect)) |
| CC(CC1CC(O)=C(c2c(C)cc(C)cc2C)C1=O)=NOCC(C)Cl (stereo not shown) [1-121] | – | 1 (Herbicidal ratio of 5% or higher and lower than 20%) | – | – | 5 (Herbicidal ratio of 90% or more (almost completely withered)) | 5 (Herbicidal ratio of 90% or more (almost completely withered)) | 3 (Herbicidal ratio of 40% or higher and lower than 70%) | 2 (Herbicidal ratio of 20% or higher and lower than 40%) | – |
